In ChEMBL document CHEMBL1137503, “Structure-based design, synthesis, and biological evaluation of peptidomimetic SARS-CoV 3CLpro inhibitors” (Bioorg Med Chem Lett, 2007):

What was measured:
[1] = target: Replicase polyprotein 1ab (Severe acute respiratory syndrome-related coronavirus, UniProt P0C6X7); test: Inhibition of SARS-CoV 3C-like protease by FRET based microplate assay
SARS-CoV = test: Antiviral activity against SARS coronavirus; type: functional, organism-based; settings: Severe acute respiratory syndrome-related coronavirus

SMILES | IC50 [1] [µM] | IC50 (SARS-CoV) [µM]
CCOC(=O)/C=C/[C@H](C[C@@H]1CCNC1=O)NC(=O)[C@@H](CC(=O)[C@@H](NC(=O)c1cc(C)on1)C(C)C)Cc1ccccc1 | 870 | 45
CCOC(=O)/C=C/[C@H](C[C@@H]1CCNC1=O)NC(=O)[C@H](Cc1ccccc1)NC(=O)[C@@H](NC(=O)c1cc(C)on1)C(C)C | 300 | 
CCOC(=O)/C=C/[C@H](C[C@@H]1CCNC1=O)NC(=O)[C@H](CC=C(C)C)CC(=O)[C@@H](NC(=O)c1cc(C)on1)C(C)C | 800 | 70
CCOC(=O)/C=C/[C@H](C[C@@H]1CCNC1=O)NC(=O)[C@H](CC(C)C)NC(=O)[C@@H](NC(=O)c1cc(C)on1)C(C)C | 200 | 
CCOC(=O)/C=C/[C@H](C[C@@H]1CCNC1=O)NC(=O)[C@H](CC(C)C)NC(=O)[C@@H](NC(=O)[C@H](CO)NC(=O)OC(C)(C)C)C(C)C | 10 | 100
CCOC(=O)/C=C/[C@H](C[C@@H]1CCNC1=O)NC(=O)[C@H](Cc1ccccc1)NC(=O)[C@@H](NC(=O)[C@H](CO)NC(=O)OC(C)(C)C)C(C)C | 15 | 100
CCOC(=O)/C=C/[C@H](C[C@@H]1CCNC1=O)NC(=O)[C@H](CC=C(C)C)CC(=O)[C@@H](NC(=O)[C@H](CO)NC(=O)OC(C)(C)C)C(C)C | 80 | 75
